Molecular target: T1, ULK1 (Homo sapiens, UniProt O75385)
T1 sequence (O75385 1-1050): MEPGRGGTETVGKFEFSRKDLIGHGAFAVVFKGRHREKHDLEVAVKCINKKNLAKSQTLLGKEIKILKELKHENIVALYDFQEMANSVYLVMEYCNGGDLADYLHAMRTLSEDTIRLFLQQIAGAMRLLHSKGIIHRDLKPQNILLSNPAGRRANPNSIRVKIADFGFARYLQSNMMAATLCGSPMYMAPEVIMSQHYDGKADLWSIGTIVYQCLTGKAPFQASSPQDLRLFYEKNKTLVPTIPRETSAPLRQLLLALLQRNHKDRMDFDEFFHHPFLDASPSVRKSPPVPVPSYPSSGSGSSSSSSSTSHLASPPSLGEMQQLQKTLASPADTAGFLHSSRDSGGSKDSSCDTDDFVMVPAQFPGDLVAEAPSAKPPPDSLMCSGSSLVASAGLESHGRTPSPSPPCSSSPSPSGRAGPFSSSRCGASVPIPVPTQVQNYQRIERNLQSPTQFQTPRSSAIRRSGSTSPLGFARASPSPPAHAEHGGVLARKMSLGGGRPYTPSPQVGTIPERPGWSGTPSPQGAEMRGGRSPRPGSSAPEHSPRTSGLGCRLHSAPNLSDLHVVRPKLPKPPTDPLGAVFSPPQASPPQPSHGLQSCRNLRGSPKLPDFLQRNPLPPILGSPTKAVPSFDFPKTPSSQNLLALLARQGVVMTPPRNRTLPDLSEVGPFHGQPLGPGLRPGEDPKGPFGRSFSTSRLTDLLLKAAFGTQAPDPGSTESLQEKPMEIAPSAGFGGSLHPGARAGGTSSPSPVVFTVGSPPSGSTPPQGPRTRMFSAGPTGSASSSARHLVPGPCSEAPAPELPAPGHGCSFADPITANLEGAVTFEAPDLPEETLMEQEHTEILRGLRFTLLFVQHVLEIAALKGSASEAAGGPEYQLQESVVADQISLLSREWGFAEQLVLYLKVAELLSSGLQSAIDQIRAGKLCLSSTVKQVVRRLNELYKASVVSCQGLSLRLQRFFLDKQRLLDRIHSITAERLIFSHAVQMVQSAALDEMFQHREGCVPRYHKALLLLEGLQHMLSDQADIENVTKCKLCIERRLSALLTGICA
Experiment: ULK1/TOM20 co-localisation immunofluorescence in PANC-1 cells
Format: cell-based
Design: pSer317 blot or TOM20 co-localisation
Protocol: FIG. 5. ULKTACs induce potent mitophagy after colocalisation and local activation of ULK1 at mitochondria (A) Representative immunofluorescence of PANC-1 cells treated with CCCP, ULKTACs or both and immunostained for TOM20 and ULK1 and counterstained with Alexa 488 and 568, respectively. Nuclei stained with Hoechst 33342. (B) Quantification of the colocalised ULK1 to TOM20 spot area of PANC-1 cells treated with DMSO, 5 mM CCCP, 10 mM BL-918, 10 mM BL-918+5 mM CCCP, […] NZ-65, […] NZ-65+5 mM CCCP, […] NZ-66, […] NZ-66+5 mM CCCP, 50 mM TSPO ligand, […] NZ-65+50 mM TSPO ligand, […] NZ-66+50 mM TSPO ligand. (C) Western blot of SH-SY5Y cells treated with 1 mM ULKTACs, 5 mM CCCP or both, probed for Mfn2, b-Actin and Tom20—quantifications are shown in (D) for Mfn2, normalised to Actin. (E) Representative images of SH-SY5Y cells stably expressing the mito-mKeima reporter treated with 3 mM CCCP, NZ-65 or both. Nuclei were stained with Hoechst 33342, healthy mitochondria are shown in green and mitochondria in lysosomes are shown in red. Fold change in mitophagy index over time after treatment for the indicated timepoints with title treatments alone or co-treated with 1.25 mM ULKTAC or 10 mM ULKTAC NZ-65 (F) or NZ-66 (G). Fold change in mitophagy index over time after treatment for the indicated timepoints with DMSO, 1.25 µM NZ-65 or NZ-66±50 µM TSPO ligand under co-treatment with DMSO (H) or 3 μM CCCP (I). […] Normalised to number of nuclei. All data shown are mean±SEM, n=3, *p<0.05, ** p<0.01, *** p<0.001. For colocalisation and TMRM experiments, one-way ANOVA with Dunnett's multiple comparisons test. For western blots, one-way ANOVA with Tukey's multiple comparisons test and unpaired t-test. For mito-mKeima experiment, two-way ANOVA with Tukey's multiple comparisons test.
For TOM20/ULK1 immunofluorescence, cells were seeded in a 384 well PerkinElmer CellCarrier Ultra plate 24 hours prior to treatment with compounds. Cells were treated for 18 hours after which they were fixed with 4% paraformaldehyde (PFA) in phosphate buffered saline (PBS) and blocked with 10% FBS and 0.1% Triton in PBS. Plates were incubated at 4° C. overnight, with 1:400 mouse anti-TOM20 (Santa Cruz, #sc-17764) and 1:400 rabbit anti-ULK1 (Cell Signalling Technologies, #0854). The following day, plates were incubated with 1:1000 goat anti-mouse Alexa 488 (ThermoFisher Scientific, #A-11029), 1:1000 goat anti-rabbit Alexa 568 (ThermoFisher Scientific, #A-11011) and 1.62 μM Hoechst 33342 at room temperature for 1 hour before imaging. For ATP5a/LC3 immunofluorescence, cells were fixed with ice-cold 1:1 MeOH: acetone and blocked with 3% BSA (Sigma-Aldrich, #A3803) in Dulbecco's PBS (D-PBS). Plates were incubated overnight at 4° C. with 1:400 LC3B (D11) XP Rabbit mAb Alexa Fluor 647 Conjugate (Cell Signalling Technologies, #65299) and 1:400 ATP5a (Cell Signalling Technologies, #18023) lightning-linked to Alexa Fluor 488. The following day, plates were incubated with 1.62 […] at room temperature for 1 hour before imaging. Excitation and emission spectra for each channel are as follows: Hoechst 33342=405/435-480 nm, Alexa 488=488/500-550 nm and Alexa 568=561/570-630 nm. Images were acquired at 40× and 63× magnification with water immersion lens.
To understand the temporal kinetics of NZ-65 and NZ-66, we assessed the recruitment of ULK1 to mitochondria, using co-localisation of ULK1 and TOM20 by immunofluorescence. […] After showing the co-localisation of ULK1 to the outer mitochondrial membrane (OMM) after ULKTAC treatment, we wanted to determine whether the ULKTACs induced mitophagy. To do this, we measured changes in Mfn2 under basal conditions and co-treatment with CCCP (FIG. 5C, D).

SMILES: O=C(Nc1ccc(F)cc1F)[C@H](NC(=S)Nc1cc(C(F)(F)F)cc(C(F)(F)F)c1)c1ccccc1 [BL-918, reference compound]
- co-localisation of ULK1 and TOM20 (PANC-1, 18 hours, alone): neither BL-918 nor the TSPO ligand alone induce co-localisation

SMILES: O=C(Nc1cc(C(F)(F)F)cc(C(F)(F)F)c1)N[C@@H](C(=O)Nc1ccc(F)cc1F)c1ccc(OCc2cn(CCOCCOCCNC(=O)C(=O)c3c(-c4ccccc4)[nH]c4ccccc34)nn2)cc1 [NZ-65, (R)-2-(3-(3,5-bis(trifluoromethyl)phenyl)ureido)-N-(2,4-difluorophenyl)-2-(4-((1-(2-(2-(2-(2-oxo-2-(2-phenyl-1H-indol-3-yl)acetamido)ethoxy)ethoxy)ethyl)-1H-1,2,3-triazol-4-yl)methoxy)phenyl) acetamide]
- co-localisation of ULK1 and TOM20 (PANC-1, 18 hours, alone): increased co-localisation of ULK1 and TOM20
- co-localisation of ULK1 and TOM20 (PANC-1, CCCP co-treatment): enhanced by CCCP co-treatment

SMILES: O=C(Nc1cc(C(F)(F)F)cc(C(F)(F)F)c1)N[C@@H](C(=O)Nc1ccc(F)cc1F)c1ccc(OCc2cn(CCCCCCNC(=O)C(=O)c3c(-c4ccccc4)[nH]c4ccccc34)nn2)cc1 [NZ-66, (R)-2-(3-(3,5-bis(trifluoromethyl)phenyl)ureido)-N-(2,4-difluorophenyl)-2-(4-((1-(6-(2-oxo-2-(2-phenyl-1H-indol-3-yl)acetamido)hexyl)-1H-1,2,3-triazol-4-yl)methoxy)phenyl) acetamide]
- co-localisation of ULK1 and TOM20 (PANC-1, 18 hours, alone): increased co-localisation of ULK1 and TOM20
- co-localisation of ULK1 and TOM20 (PANC-1, CCCP co-treatment): enhanced by CCCP co-treatment
